Earlier results on one compound are cited in patent US20130146496A1, “SOLID PHARMACEUTICAL FORMULATIONS OF RAMIPRIL AND AMLODIPINE BESYLATE, AND THEIR PREPARATION” (priority 2010, published 2013).

For data set [1] the following is noted: in vivo.

With `CCOC(=O)C1=C(COCCN)NC(C)=C(C(=O)OC)C1c1ccccc1Cl` (racemic) [Amlodipine besylate, 3-ethyl-5-methyl-(+-)-2-[(2-aminoethoxy)methyl]-4-(2-chlorophenyl)-1,4-dihydro-6-methylpyridine-3,5-dicarboxylate], the solubility in water result is on record as “slightly soluble”. In addition, the absolute bioavailability in data set [1] is on record as 64-90%.
